Measurements from PMC3365829 (ACS medicinal chemistry letters, 2012).

Assay: In vivo pharmacokinetics in mice
Details: mouse, iv, 3 mg/kg

SMILES: CCCCNc1ncc2c(-c3ccc(F)cc3)nn(C[C@H]3CC[C@H](N)CC3)c2n1 [Compound 43]
- clearance: 19.5 mL/min/kg
